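Assay format: 96-well plates, 48-hour exposure. GI50 marks 50% less growth. TGI: total growth inhibition.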
Experiments:
Assay in all cases: NCI tumour cell line growth inhibition, 48 h
HS 578T breast = tested on: HS 578T breast
HCC-2998 colon = tested on: HCC-2998 colon
UO-31 renal = tested on: UO-31 renal
PC-3 prostate = tested on: PC-3 prostate
NCI/ADR-RES ovarian = tested on: NCI/ADR-RES ovarian
LOX IMVI melanoma = tested on: LOX IMVI melanoma
MCF7 breast = tested on: MCF7 breast
SK-MEL-2 melanoma = tested on: SK-MEL-2 melanoma
BT-549 breast = tested on: BT-549 breast
OVCAR-4 ovarian = tested on: OVCAR-4 ovarian

SMILES	GI50 (HS 578T breast) [µM]	TGI (HS 578T breast) [µM]	GI50 (HCC-2998 colon) [µM]	TGI (HCC-2998 colon) [µM]	GI50 (UO-31 renal) [µM]	TGI (UO-31 renal) [µM]	GI50 (PC-3 prostate) [µM]	TGI (PC-3 prostate) [µM]	GI50 (NCI/ADR-RES ovarian) [µM]	TGI (NCI/ADR-RES ovarian) [µM]	GI50 (LOX IMVI melanoma) [µM]	TGI (LOX IMVI melanoma) [µM]	GI50 (MCF7 breast) [µM]	TGI (MCF7 breast) [µM]	GI50 (SK-MEL-2 melanoma) [µM]	TGI (SK-MEL-2 melanoma) [µM]	GI50 (BT-549 breast) [µM]	TGI (BT-549 breast) [µM]	GI50 (OVCAR-4 ovarian) [µM]	TGI (OVCAR-4 ovarian) [µM]
COc1ccc(-c2cn[nH]c2-c2cc(OC)c3c(c2)OCO3)cc1	0.311	26.2	0.649	11.8	0.669	23.1	0.262	21.8	0.12	27.4	0.599	19.2	0.116	15.8	0.265	17.8	2.26	25.8	2.15	62.9
COc1cc(C#Cc2ccc(=O)oc2C#Cc2ccccc2)cc(OC)c1OC	5.83	43.9	2.6	9.87	1.51	3.04	4.13	16.3	6.39	18.9	1.1	2.6	1.99	4.86	5.69	12.7	1.97	4.21	4.97	68.6
Clc1nc(Cl)c2ncn(Cc3cccc(Cn4cnc5c(Cl)nc(Cl)nc54)c3)c2n1	2.69	7.29	2.38	7.11	1.92	3.55	3.99	13.6	12.5	35	2.23	5.57	3.66	37.4	2.79	7.72	3.35	11.3	3.69	13.2
COC(=O)CCc1c[nH]c2ccc(N(CCCl)CCCl)cc12	15.1	50.1	8.33	27.1	4.81	> 42.6	8.65	> 73.4	2.3	> 56.8	1.39	> 36.2	0.572	22.9	9.71	59	8.52	41.5	7.71	52.2
[Cl][Hg][Cl]	22.8	57.4	17.5	31.7	22.7	37.2	17.3	32	28.5	79.6	1.72	16	12.5	> 56	16.2	34.5	20.3	34.8	16.9	35
CN(C)CCCOc1ccc(-c2ccc3ncc4c(c3c2)n(C2CCOCC2)c(=O)n4C)cn1	0.902	10.1	2.51	15.6	0.494	5.89	0.861	13.8	3.86	21.9	1.13	6.51	0.545	14.5	1.47	6.21	1.32	8.99	1.34	11.3

Reference: PubChem BioAssay (NCI)
